Measured values from PubChem BioAssay (NCI).
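Following 48 hours of exposure in 96-well plates, responses at five concentrations were used to interpolate endpoints linearly. TGI denotes the concentration required for complete inhibition of growth.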

Tests used:
Assay in all cases: NCI-60 cell line screen, 48 h
[1] = test system: PC-3 prostate
[2] = test system: UACC-257 melanoma
[3] = test system: MDA-N
[4] = test system: HS 578T breast
[5] = test system: RPMI-8226 leukemia
[6] = test system: A549 NSCLC
[7] = test system: NCI/ADR-RES ovarian
[8] = test system: SK-OV-3 ovarian
[9] = test system: NCI-H23 lung
[10] = test system: OVCAR-4 ovarian
[11] = test system: SF-539 CNS
[12] = test system: MDA-MB-231 breast
[13] = test system: 786-0 renal
[14] = test system: NCI-H460 lung
[15] = test system: CCRF-CEM leukemia
[16] = test system: SF-295 CNS
[17] = test system: SK-MEL-5 melanoma
[18] = test system: RXF 393 renal
[19] = test system: UACC-62 melanoma
[20] = test system: NCI-H226 lung
[21] = test system: NCI-H522 lung
[22] = test system: HCC-2998 colon
[23] = test system: HCT-116 colon
[24] = test system: MDA-MB-435
[25] = test system: SNB-75 CNS
[26] = test system: TK-10 renal
[27] = test system: U251 CNS
[28] = test system: BT-549 breast
[29] = test system: KM12 colon
[30] = test system: SN12C renal
[31] = test system: IGROV1 ovarian
[32] = test system: OVCAR-3 ovarian
[33] = test system: SF-268 CNS
[34] = test system: CAKI-1 renal
[35] = test system: T-47D breast
[36] = test system: DU-145 prostate
[37] = test system: OVCAR-8 ovarian
[38] = test system: HOP-62 NSCLC
[39] = test system: MCF7 breast
[40] = test system: ACHN renal
[41] = test system: K-562 leukemia
[42] = test system: SW-620 colon
[43] = test system: MOLT-4 leukemia
[44] = test system: SNB-19 CNS
[45] = test system: HL-60(TB) leukemia
[46] = test system: HT29 colon
[47] = test system: HCT-15 colon
[48] = test system: EKVX NSCLC
[49] = test system: SK-MEL-28 melanoma
[50] = test system: M14 melanoma
[51] = test system: SR leukemia
[52] = test system: UO-31 renal

SMILES: CN(/N=C/c1cccs1)c1ccc(Cl)cc1[N+](=O)[O-]
- TGI [1]: > 100 µM
- TGI [2]: > 100 µM
- TGI [3]: > 100 µM
- TGI [4]: 76.2 µM
- TGI [5]: > 100 µM
- TGI [6]: > 100 µM
- TGI [7]: 66.7 µM
- TGI [8]: > 100 µM
- TGI [9]: > 100 µM
- TGI [10]: > 100 µM
- TGI [11]: 75 µM
- TGI [12]: > 100 µM
- TGI [13]: > 100 µM
- TGI [14]: > 100 µM
- TGI [15]: 73.2 µM
- TGI [16]: > 100 µM
- TGI [17]: > 100 µM
- TGI [18]: > 100 µM
- TGI [19]: > 100 µM
- TGI [20]: 97.3 µM
- TGI [21]: 69.5 µM
- TGI [22]: > 100 µM
- TGI [23]: > 100 µM
- TGI [24]: > 100 µM
- TGI [25]: > 100 µM
- TGI [26]: > 100 µM
- TGI [27]: 59.5 µM
- TGI [28]: > 100 µM
- TGI [29]: > 100 µM
- TGI [30]: > 100 µM
- TGI [31]: > 100 µM
- TGI [32]: > 100 µM
- TGI [33]: > 100 µM
- TGI [34]: > 100 µM
- TGI [35]: > 100 µM
- TGI [36]: > 100 µM
- TGI [37]: > 100 µM
- TGI [38]: > 100 µM
- TGI [39]: > 100 µM
- TGI [40]: > 100 µM
- TGI [41]: > 100 µM
- TGI [42]: > 100 µM
- TGI [43]: > 100 µM
- TGI [44]: > 100 µM
- TGI [45]: 54.1 µM
- TGI [46]: > 100 µM
- TGI [47]: > 100 µM
- TGI [48]: > 100 µM
- TGI [49]: > 100 µM
- TGI [50]: > 100 µM
- TGI [51]: > 100 µM
- TGI [52]: > 100 µM
